Data as given in patent US20250025452A1 (Clearside Biomedical, Inc., priority 2023, published 2025).

Experiment: Solubility (product profile)
Format: physicochemical
Conditions: API
Source text: Further information providing the solubility, particle size, viscosity, and other product profile parameters of exemplary CLS-AX compositions (active pharmaceutical ingredient (API); and drug product) are provided in Table 1C.

CNC(=O)c1ccccc1Sc1ccc2c(/C=C/c3ccccn3)n[nH]c2c1 [Axitinib]
Solubility (solvent): DMSO
